Results on twelve compounds are retold here after PubChem BioAssay (NCI).

Structures are written as SMILES.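 Following 48 hours of exposure in 96-well plates, responses at five concentrations were used to interpolate endpoints linearly. Abbreviation: GI50, concentration required for 50% inhibition of growth. TGI: concentration producing complete growth inhibition.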

What all share (test): NCI-60 cell line screen, 48 h
The subject of assay [1] is SW-620 colon.
Assay [2] concerns HOP-92 NSCLC.
Assay [3] has as its system K-562 leukemia.
The subject of assay [4] is RXF 393 renal.
The test system of assay [5] is HL-60(TB) leukemia.
Assay [6] deals with SK-MEL-28 melanoma.
The test system of assay [7] is COLO 205 colon.
The subject of assay [8] is OVCAR-3 ovarian.
Assay [9] concerns HT29 colon.
Assay [10] has as its system OVCAR-8 ovarian.

Turning to `COc1ccc(C2CC(c3cccc(Nc4ccncc4)c3)=NN2c2ccc(Cl)cc2)cc1` (configuration not stated), the GI50 is 1.61 µM in assay [1]; 1.12 µM in assay [2]; 1.6 µM in assay [3]; 1.59 µM in assay [4]; 1.91 µM in assay [5]; 1.73 µM in assay [6]. Moreover, the GI50 in assay [7] is 1.78 µM; in [8], 1.67 µM. The TGI came out at 3.19 µM in assay [1]; 2.44 µM in [2]; 4.37 µM in [3]; 3.03 µM in assay [4]; 4.06 µM in [5]; 3.2 µM in assay [6]. In addition, the TGI was 3.76 µM in assay [7] and 3.15 µM in [8].

As to `O=Cc1cc([N+](=O)[O-])no1`, the TGI was more than 100 µM in assay [1]; more than 100 µM in assay [2]; 61.6 µM in assay [9]; 38.6 µM in assay [3]; more than 100 µM in assay [10]; more than 100 µM in [4]. The TGI in assay [5], in assay [6], in assay [7] and in assay [8] was more than 100 µM throughout.

Take `CS(=O)(=O)OC1CN2CCC1CC2` (configuration not stated): the TGI in [1], in [2], in [9], in [3], in [10] and in assay [4] was more than 100 µM each time. The TGI in assay [5], in assay [6], in assay [7] and in assay [8] was more than 100 µM each time.

As to `Cc1cccc2cc3c(ccc4ccccc43)c[n+]12`, the TGI in assay [1], in assay [9], in assay [3], in assay [10], in [4] and in assay [5] was more than 100 µM each time. For the same compound, the TGI in assay [6] is 34.3 µM; in assay [7], 31.6 µM; in assay [8], 16.9 µM.

As for `CCN1C=C/C(=C\C=C/c2cc[n+](CC)c3ccccc23)c2ccccc21`, the TGI was found to be 16.2 µM in [1]; 37.5 µM in [2]; 13.8 µM in assay [9]; 17.1 µM in assay [10]; 70.3 µM in assay [4]; 15.1 µM in assay [5]. Further, the values for the TGI in assay [6], in assay [7] and in [8] were 21.8 µM, 17 µM and 6.81 µM, respectively.

On to `CN(c1cc2ncc(=O)[nH]c2cc1NC(N)=NCc1ccc(Cl)cc1)C1CCCCC1`, for which the GI50 in assay [1] was 4.33 µM; in assay [2], 0.793 µM; in assay [9], 5.03 µM; in assay [3], 2.38 µM; in [10], 10.4 µM; in assay [4], 5.79 µM. Also, the GI50 was 5.36 µM in assay [5], 6.71 µM in assay [6], 1.11 µM in assay [7] and 6.78 µM in assay [8]. The TGI amounted to 11.2 µM in assay [1]; 5.95 µM in [2]; 14.1 µM in [9]; 9.73 µM in [3]; 23.3 µM in [10]; 13 µM in assay [4]. For the same compound, the TGI in [5] stood at 12.7 µM; in [6], 13.7 µM; in assay [7], 2.55 µM; in [8] it was 13.6 µM.

Turning to `Nc1cc2c(nnn2C2OC(COCc3ccccc3)C(OCc3ccccc3)C2OCc2ccccc2)c(=O)[nH]1` (configuration not stated), the TGI in assay [1] is more than 100 µM; in assay [2], more than 100 µM; in assay [9], 41.8 µM; in [3], 84.6 µM; in assay [10], more than 100 µM; in assay [4], 39.5 µM. In addition, the TGI was 28.1 µM in [5], more than 100 µM in assay [6], 20.3 µM in assay [7] and more than 100 µM in [8].

As to `CCCCCCNC(=O)c1cc(CCc2cc(O)ccc2O)ccc1O`, the TGI in [1] was more than 75.9 µM; in assay [2], 3.87 µM; in assay [9], 64.7 µM; in [3] it was 8.87 µM; in assay [10], 17.6 µM; in assay [4] it was 4.39 µM. The TGI in [5] was found to be 4.11 µM; in [6], 7.37 µM; in assay [7], 41.6 µM; in assay [8], 5.94 µM.

Turning to `O=S1(=O)C(c2ccccc2)C(N2CCCCC2)C1C1CC2c3ccccc3C1c1ccccc12` (configuration not stated), the TGI in assay [1], in assay [2], in assay [9], in assay [3], in assay [10] and in assay [4] was more than 100 µM each time. Besides, the TGI in assay [5], in [6], in assay [7] and in assay [8] was more than 100 µM in each case.

Regarding `CO/C=C(/C(=O)OC)c1ccccc1[C@@H]1CC1c1cccc(F)c1` (some centres not stated), the TGI in [2] is more than 100 µM; in [9] it was more than 100 µM; in assay [3], more than 100 µM; in assay [10], more than 100 µM; in assay [4], more than 100 µM; in assay [5] it was 57.9 µM. Moreover, the TGI was more than 100 µM in [6], 30.3 µM in assay [7] and more than 100 µM in assay [8].

Regarding `CCOC(=O)C[C@@H]1C2(C=C[C@@]13CO3)OCC(C)(C)CO2`, the TGI in [1], in assay [2], in assay [9], in assay [3], in [10] and in assay [4] was more than 100 µM in each case. The TGI in assay [5], in assay [6], in assay [7] and in assay [8] was more than 100 µM in each case.

For the compound `Cc1ccc(NP(=O)(Oc2ccccc2)N(CCCl)CCCl)cc1` (configuration not stated), the TGI in assay [1], in assay [2], in assay [9], in assay [3], in assay [10] and in assay [5] was more than 100 µM each time. Also, the TGI in assay [6], in assay [7] and in assay [8] was more than 100 µM each time.
